Laboratory results: US7030265B2, “Retinol derivatives, the method of preparations and the uses thereof” (Chebigen, Inc., priority 2001, dated 2006)

Target: T1, retinoid X receptor β (Homo sapiens, UniProt P28702)
T1 construct: expressed in transfected cells; host or cells: HaCAT
T1 sequence (P28702 1-533): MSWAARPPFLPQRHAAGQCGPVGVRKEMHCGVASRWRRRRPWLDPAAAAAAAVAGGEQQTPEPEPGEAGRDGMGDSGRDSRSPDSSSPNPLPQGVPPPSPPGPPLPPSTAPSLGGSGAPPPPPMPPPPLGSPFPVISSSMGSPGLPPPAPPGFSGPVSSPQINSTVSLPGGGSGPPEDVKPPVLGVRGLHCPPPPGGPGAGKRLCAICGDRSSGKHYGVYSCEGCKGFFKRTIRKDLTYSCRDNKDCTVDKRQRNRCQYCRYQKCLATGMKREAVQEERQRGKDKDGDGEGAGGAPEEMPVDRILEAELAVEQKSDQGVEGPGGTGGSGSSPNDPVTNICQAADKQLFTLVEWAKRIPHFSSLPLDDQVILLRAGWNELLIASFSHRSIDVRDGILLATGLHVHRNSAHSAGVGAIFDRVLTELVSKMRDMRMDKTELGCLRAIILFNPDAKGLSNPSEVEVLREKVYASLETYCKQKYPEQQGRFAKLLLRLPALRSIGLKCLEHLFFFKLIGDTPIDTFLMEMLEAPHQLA
Experiment: RXR activity test, DR1-tk-CAT reporter in HaCAT cells
Assay type: cell-based
Conditions: 1 μM, CAT ELISA, FIG. 2 (B)
Excerpt: To analyze the effects of retinol-(N-formyl-aspartam) on the activity of retinoic acid receptor, skin cancer (HaCAT) cell lines were utilized to measure the activity of retinoic acid receptor/retinoid X receptor.
Recombinant DNA, DR5-tk-CAT or DR1-tk-CAT consisting of DR1 or DR5, effectors of retinoic acid receptor/retinoid X receptor, thymine kinase promoter, and CAT(chloramphenicol acetyl transferase) were mixed with the plasmid DNA expressing retinoic acid receptor α, β, ? or retinoid X receptor α, β, ? to cotransfect skin cancer (HaCAT) cell line with lipofectamine (GibcoBRL). The cotransfected cell lines were cultured for 1 day on DMEM/10% FBS media, each retinol derivatives (1 μM) were added and cultured for one more day, 5% CO2, 37° C. The cells were washed with phosphate-buffered saline (PBS), and the proteins were isolated from each cells, and the activity of β-galactosidase and protein contents were measured to determine transfection efficacy, the transcription level of RAR or RXR receptor were measured with CAT ELISA (Roche Molecular Biochemical, Mannheim, Germany).

activation of retinoid X receptor β: no activation
SMILES: COC(=O)C(Cc1ccccc1)NC(=O)[C@H](CC(=O)OC/C=C(C)/C=C/C=C(C)/C=C/C1=C(C)CCCC1(C)C)NC=O (stereo partly drawn) [retinol-(N-formyl-aspartam), (2E,4E,6E,8E)-3,7-dimethyl-9-(2,6,6-trimethyl-1-cyclohexenyl)-2,4,6,8-nonatetraenyl(3S)-4-[(1-benzyl-2-methoxy-2-oxoethyl)amino]-3-formylamino-4-oxobutanoate]
